Experiment [1] concerns the target T1, Histone deacetylase 8 (Homo sapiens, UniProt Q9BY41).
T1 sequence (Q9BY41 whole entry): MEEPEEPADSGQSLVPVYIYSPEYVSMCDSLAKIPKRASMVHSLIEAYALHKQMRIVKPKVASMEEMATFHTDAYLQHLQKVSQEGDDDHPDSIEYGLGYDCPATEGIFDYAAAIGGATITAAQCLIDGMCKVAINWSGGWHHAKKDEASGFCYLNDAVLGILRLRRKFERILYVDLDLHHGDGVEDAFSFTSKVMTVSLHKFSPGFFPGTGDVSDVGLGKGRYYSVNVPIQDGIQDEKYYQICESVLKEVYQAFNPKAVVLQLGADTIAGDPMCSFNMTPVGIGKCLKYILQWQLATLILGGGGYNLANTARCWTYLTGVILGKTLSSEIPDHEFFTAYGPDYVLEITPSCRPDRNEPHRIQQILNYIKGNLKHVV
The experiment is described as follows: Inhibition of human KDAC8 after 60 mins by fluorescence assay.

In experiment [2] the target is T2, Histone deacetylase 3 (Homo sapiens, UniProt O15379). The experiment is described as follows: Inhibition of human KDAC3 using FITC-labeled p53 acetylated peptide as substrate after 60 mins by fluorescence assay.
For experiment [3], the target named is T3, Protein deacetylase HDAC6 (Homo sapiens) (UniProt Q9UBN7).
T3 sequence (whole entry): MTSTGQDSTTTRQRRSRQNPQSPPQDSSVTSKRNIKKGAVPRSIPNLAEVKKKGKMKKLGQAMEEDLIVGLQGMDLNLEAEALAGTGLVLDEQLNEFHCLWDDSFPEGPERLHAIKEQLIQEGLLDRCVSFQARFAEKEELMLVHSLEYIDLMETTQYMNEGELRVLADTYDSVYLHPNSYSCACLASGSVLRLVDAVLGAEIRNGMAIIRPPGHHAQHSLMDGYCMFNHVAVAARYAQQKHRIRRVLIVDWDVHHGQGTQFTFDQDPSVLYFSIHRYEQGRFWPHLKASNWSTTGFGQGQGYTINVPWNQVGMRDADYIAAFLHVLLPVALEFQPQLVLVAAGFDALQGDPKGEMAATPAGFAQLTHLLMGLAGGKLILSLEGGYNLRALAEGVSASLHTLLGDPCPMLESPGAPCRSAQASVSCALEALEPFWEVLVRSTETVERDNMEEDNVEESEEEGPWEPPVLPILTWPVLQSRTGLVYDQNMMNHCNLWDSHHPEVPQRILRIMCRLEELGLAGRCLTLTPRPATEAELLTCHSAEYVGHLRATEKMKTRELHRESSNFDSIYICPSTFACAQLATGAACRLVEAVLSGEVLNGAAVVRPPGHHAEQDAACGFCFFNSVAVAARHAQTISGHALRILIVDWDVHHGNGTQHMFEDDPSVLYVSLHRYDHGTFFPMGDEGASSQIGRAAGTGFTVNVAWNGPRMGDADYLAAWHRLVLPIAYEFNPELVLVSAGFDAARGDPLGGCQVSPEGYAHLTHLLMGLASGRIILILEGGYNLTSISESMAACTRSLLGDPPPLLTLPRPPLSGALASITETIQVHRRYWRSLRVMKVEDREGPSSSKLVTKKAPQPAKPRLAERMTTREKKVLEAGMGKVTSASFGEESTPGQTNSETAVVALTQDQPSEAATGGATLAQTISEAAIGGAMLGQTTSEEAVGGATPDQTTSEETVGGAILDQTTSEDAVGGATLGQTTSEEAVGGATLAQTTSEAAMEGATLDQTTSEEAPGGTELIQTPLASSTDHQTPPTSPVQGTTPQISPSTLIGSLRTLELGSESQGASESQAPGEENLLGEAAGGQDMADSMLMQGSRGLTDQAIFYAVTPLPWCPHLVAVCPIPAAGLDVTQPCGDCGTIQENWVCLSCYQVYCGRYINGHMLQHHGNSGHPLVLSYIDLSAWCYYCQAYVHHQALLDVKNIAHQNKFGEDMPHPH
The note with it: at 30 µM.
Description: Inhibition of human KDAC6 at 30 uM using FITC-labeled histone H4 acetylated peptide as substrate after 60 mins by fluorescence assay relative to control

For experiment [4], the target named is T4, Protein deacetylase HDAC6 (Homo sapiens, UniProt Q9UBN7).
T4 sequence (Q9UBN7 whole entry): T3 sequence (whole entry)
The experiment is described as follows: Inhibition of human KDAC6 using FITC-labeled histone H4 acetylated peptide as substrate after 60 mins by fluorescence assay.

Experiment [5] concerns the target T2, Histone deacetylase 3. Kind of experiment: Inhibition of human KDAC3 at 30 uM using FITC-labeled p53 acetylated peptide as substrate after 60 mins by fluorescence assay relative to control.
In experiment [6] the target is T5, Histone deacetylase 8 (Homo sapiens) (UniProt Q9BY41).
T5 sequence (whole entry): T1 sequence (Q9BY41 whole entry)
Kind of experiment: Inhibition of human KDAC8 at 30 uM after 60 mins by fluorescence assay relative to control.

The target of experiment [7] is T6, Histone deacetylase 1 (Homo sapiens, UniProt Q13547). Kind of experiment: Inhibition of human KDAC1 at 30 uM using substrate A after 60 mins by fluorescence assay relative to control.
Experiment [8] has as its target T6, Histone deacetylase 1. The experiment is described as follows: Inhibition of human KDAC1 using substrate A after 60 mins by fluorescence assay.

This passage reports IC50 and inhibition results from ChEMBL document CHEMBL3997794, “Design and synthesis of benzodiazepine analogs as isoform-selective human lysine deacetylase inhibitors” (Eur J Med Chem, 2017).

A value given as a limit tells only on which side of the number the result lay.

The IC50 is the concentration that gives 50% inhibition. Broadly, the inhibition is the relative decrease from the control value, in per cent.

T2 sequence (O15379 whole entry): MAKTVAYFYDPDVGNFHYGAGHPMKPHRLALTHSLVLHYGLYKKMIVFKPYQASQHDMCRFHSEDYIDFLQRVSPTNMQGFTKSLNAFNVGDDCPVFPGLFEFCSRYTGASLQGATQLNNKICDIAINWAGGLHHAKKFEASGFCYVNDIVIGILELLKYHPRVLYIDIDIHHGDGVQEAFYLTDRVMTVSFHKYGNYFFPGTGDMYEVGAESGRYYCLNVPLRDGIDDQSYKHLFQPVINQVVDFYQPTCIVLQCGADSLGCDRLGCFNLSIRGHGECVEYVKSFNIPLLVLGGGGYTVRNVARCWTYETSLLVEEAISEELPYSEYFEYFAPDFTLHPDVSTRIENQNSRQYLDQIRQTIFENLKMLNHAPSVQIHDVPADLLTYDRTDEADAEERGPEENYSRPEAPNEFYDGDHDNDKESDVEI
T6 sequence (Q13547 whole entry): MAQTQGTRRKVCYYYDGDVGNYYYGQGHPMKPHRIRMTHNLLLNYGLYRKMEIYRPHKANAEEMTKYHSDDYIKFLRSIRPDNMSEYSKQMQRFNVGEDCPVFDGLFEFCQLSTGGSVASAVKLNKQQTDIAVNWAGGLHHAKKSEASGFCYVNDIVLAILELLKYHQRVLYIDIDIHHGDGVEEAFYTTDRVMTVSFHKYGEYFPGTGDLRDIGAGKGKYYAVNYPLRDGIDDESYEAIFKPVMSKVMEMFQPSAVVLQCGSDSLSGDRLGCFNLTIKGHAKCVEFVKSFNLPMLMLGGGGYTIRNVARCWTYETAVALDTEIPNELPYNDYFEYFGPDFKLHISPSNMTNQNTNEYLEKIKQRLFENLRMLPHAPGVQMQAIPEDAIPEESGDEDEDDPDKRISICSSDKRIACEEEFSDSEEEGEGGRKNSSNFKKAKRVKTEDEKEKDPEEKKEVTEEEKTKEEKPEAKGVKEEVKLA

Turning to `O=C(CCCCN1C(=O)[C@H](Cc2cncn2C(c2ccccc2)(c2ccccc2)c2ccccc2)N=C(c2ccccc2)c2ccccc21)NO`, the IC50 in experiment [1] is greater than 30 µM; in experiment [2] it was 2.55 µM; in experiment [4], 4.74 µM; in experiment [8], greater than 30 µM. For the same molecule, the inhibition in experiment [3] came out at 89.9%; in experiment [5], 93.4%; in experiment [6], 1.38%; in experiment [7] it was 22.3%.

With `C[C@H](OCc1ccccc1)[C@@H]1N=C(c2ccccc2)c2ccccc2NC1=O`, the IC50 in experiment [1], in experiment [2], in experiment [4] and in experiment [8] was greater than 30 µM in each case. For the same molecule, the inhibition stood at 3.08% in experiment [3], 2.49% in experiment [5], 9.14% in experiment [6] and 1.5% in experiment [7].

In the case of `COC(=O)CCCCN1C(=O)[C@H](Cc2ccc(OC(C)(C)C)cc2)N=C(c2ccccc2)c2ccccc21`, the half-maximal inhibitory concentration (IC50) in experiment [1], in experiment [2], in experiment [4] and in experiment [8] was greater than 30 µM in each case. Moreover, the inhibition in experiment [3] came to 0%; in experiment [5], 0.98%; in experiment [6], 0%; in experiment [7] it was 8.72%.
